Target: T1, IgE-Tb / FcεR1α-Y131A-AF488 (soluble IgE receptor FcεR1α with a Y131A mutation) (Homo sapiens, UniProt P0DOX4, C225A/N265Q/N371Q)
T1 construct: 86 nmoles of IgE-Fc(N265Q, N371Q) (Young et al., 1995)
Assay: In vitro FRET assay of IgE-Tb binding to FcεR1α-Y131A-AF488, 2 hours incubation (examples 16 and 89)
Settings: 5 nM IgE-Tb, 25 nM FcεR1α-Y131A-AF488; 2 hours at room temperature; read-out: FRET IC50 range
Protocol: 86 nmoles of IgE-Fc(N265Q, N371Q) (Young et al., 1995) at 172 μM in 100 mM NaHCO3, pH 9.5 was added to 1 mg of LanthaScreen™ Amine Reactive Tb Chelate (ThermoFisher catalogue number PV3583) and incubated for 16 hours at 20° C. The material was then buffer exchanged into Phosphate Buffered Saline (being, 137 mM NaCl, 2.7 mM KCl, 10 mM Na2HPO4, 1.8 mM K2HPO4, pH 7.4) and the material quantified and the degree of Tb conjugation determined by measuring the absorption at 280 nm and 343 nm.
400 nmoles FcεR1α (Y131A mutant) (Cook et al., 1997) at 400 μM in 100 mM NaOAc pH 5.5 was reacted with 1 mM final concentration sodium periodate (in 100 mM NaOAc, pH 5.5) for 60 minutes at 22° C. […]
175 nmoles of protein was added to 1 mg of Alexa Fluor™ 488 hydrazide (Invitrogen) and incubated for 16 hours at 22° C. […] The protein was buffer exchanged into Phosphate Buffered Saline (being, 137 mM NaCl, 2.7 mM KCl, 10 mM Na2HPO4, 1.8 mM K2HPO4, pH 7.4) and the material quantified and the degree of Alexa Fluor™ 488 conjugation determined by measuring the absorption at 280 nm and 495 nm.
The aim was to measure binding of IgE-Tb to receptor, and the inhibition thereof by compounds, using an in vitro Fluorescence Resonance Energy Transfer (FRET) Assay. […]
Measurement of FRET for each well was carried out by exciting at 330 nm and measuring emission at 495/520 nm using an Envision plate reader (Perkin Elmer). […]

T1 sequence (P0DOX4 224-547 C225A/N265Q/N371Q): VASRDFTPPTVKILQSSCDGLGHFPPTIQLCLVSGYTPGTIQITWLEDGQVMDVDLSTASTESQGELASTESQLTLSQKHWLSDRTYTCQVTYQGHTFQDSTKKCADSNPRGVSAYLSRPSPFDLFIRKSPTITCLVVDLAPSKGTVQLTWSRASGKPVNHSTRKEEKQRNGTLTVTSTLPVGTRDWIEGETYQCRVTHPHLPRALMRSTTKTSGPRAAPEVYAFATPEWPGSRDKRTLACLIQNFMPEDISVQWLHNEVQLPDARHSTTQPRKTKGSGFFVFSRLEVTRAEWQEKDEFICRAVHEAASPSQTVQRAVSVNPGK

Compound | IC50 [nM]
CCNC(=O)N[C@H]1C[C@H](O)c2cc(S(=O)(=O)NCC(C)C)c3cc(C4CC4)ncc3c21 (racemic) [Example 16, 1-ethyl-3-[trans-(7RS,9RS)-3-cyclopropyl-7-hydroxy-5-(2-methylpropylsulfamoyl)-8,9-dihydro-7H-cyclopenta[h]isoquinolin-9-yl]urea] | 100 to 2000
CC(C)(F)CNS(=O)(=O)c1cc2c(c3cnc(C4CC4)cc13)C(N)CC2NC(=O)c1cccnc1 (centres unmarked) [Example 89, N-[9-amino-3-cyclopropyl-5-[(2-fluoro-2-methylpropyl)sulfamoyl]-8,9-dihydro-7H-cyclopenta[h]isoquinolin-7-yl]pyridine-3-carboxamide] | 100 to 2000

Source: patent US20230192646A1, “DIHYDRO-CYCLOPENTA-ISOQUINOLINE DERIVATIVES” (UCB Biopharma SRL, priority 2019, published 2023)
